# Reference: patent US7674787B2, “Conformationally constrained Smac mimetics and the uses thereof” (The Regents of the University of Michigan, priority 2004, dated 2010)
# Where two headings read alike, the source gives them in different places. Where a SMILES comes first, the peptide text is derived from it. [ ]: non-standard residue; d: D form. The star is where a group is joined. 6FAM = O=C1OC2(c3ccc(O)cc3Oc3cc(O)ccc32)c2cc(C(=O)*)ccc21; Abu = CC[C@H](N)C(=O)O
# Tests used:
# PC-3 cells = experiment: Apoptosis by Annexin V-FITC staining in PC-3 cells; format: cell-based, human; conditions: for cells undergoing apoptosis as compared to control cells: 42 hours; for potentiation of CDDP activity in inducing apoptosis: PC-3 cells or MDA-231 cells
# Description: SH-97, a peptido-mimetic in which the side chain of alanine has been replaced with an ethyl group and the isoleucine has been replaced with a diphenylmethyl group, was used to test the basic premise. Of note, SH-97 still has two natural amino acids (valine and proline) and one natural peptide bond. […] The experiment used PC-3 cells which express high levels of XIAP and cIAP-1/2 proteins and cisplatin (CDDP) as the chemotherapeutic drug. CDDP is a DNA damaging agent and can effectively induce apoptosis in PC-3 cells and is also a clinically used chemotherapeutic drug for prostate cancer.
# PC-3 cells were treated with CDDP, Smac peptides and mimetics alone or in combination for 42 hours and apoptosis was analyzed by Annexin V-FITC staining. […] Combination of 25 μM CDDP and 10 μM or 25 μM SH-97 induced 29.3%±1.9% and 35.8%±0.4% apoptosis over control cells, respectively (FIG. 18A).
# Similar experiments were performed with SH-102 (Table 5). PC-3 cells in 6-well plates were treated with SH-102 and CDDP, alone or in combination, for 42 hours. Cells were collected and stained with Annexin V-FITC and propidium iodide. The fluorescence of Annexin V-FITC and propidium iodide of individual cells was analyzed by flow cytometry. […] Combination of 25 μM CDDP and 10 μM SH-102 induced 32% apoptosis over control cells (FIG. 19).
# The same experiment was performed using TAXOTERE (docetaxel), another cancer chemotherapeutic drug. PC-3 cells in 6-well plates were treated with SH-102 and TAXOTERE, alone or in combination, for 42 hours. Cells were collected and stained with Annexin V-FITC and propidium iodide. The fluorescence of Annexin V-FITC and propidium iodide of individual cells was analyzed by flow cytometry. […] Combination of 10 μM TAXOTERE and 10 μM SH-102 induced about 18% apoptosis over control cells (FIG. 21).
# MDA-231 cells = experiment: Apoptosis by Annexin V-FITC/propidium iodide in MDA-231 cells; format: cell-based, human; conditions: for cells undergoing apoptosis as compared to control cells: 42 hours
# Description: Similar experiments were performed using the breast cancer cell line MDA-231. MDA-231 cells in 6-well plates were treated with SH-102 and CDDP, alone or in combination, for 42 hours. Cells were collected and stained with Annexin V-FITC and propidium iodide. The fluorescence of Annexin V-FITC and propidium iodide of individual cells was analyzed by flow cytometry. 25 μM and 50 μM CDDP induced about 25% and 42% of MDA-231 cells to undergo apoptosis as compared to control cells, respectively (FIG. 22). […] Combination of 25 and 50 μM CDDP and 10 μM SH-102 induced about 35% and 75% apoptosis over control cells, respectively (FIG. 22).
# XIAP BIR3 = XIAP BIR3 (Homo sapiens, UniProt P98170); experiment: biochemical
# [1] = system: BT-549, MDA-MB-231 (subclone 2LMP), MDA-MB-231 (ATCC) and PC-3 cells; experiment: Cell growth inhibition, WST-8, cancer cell lines; format: cell-based, human; conditions: 5 days, WST-8; each of the cancer cell lines
# Description: To test the effect of [6.3.0] Smac mimetics in inhibition of cell growth in human cancer cells, compounds were administered to several different cancer cell lines. BT-549, MDA-MB-231 (subclone 2LMP), and MDA-MB-231 (ATCC) human breast cancer cells and PC-3 human prostate cancer cells were seeded in 96-well plates with increasing concentrations of the compounds. To assay for the selectivity of the compounds for cancer cells, normal prostate epithelial cells were also tested. The cells were then incubated at 37° C. with 5% CO2 for 5 days, followed by detection of cell viability with WST-8. Untreated cells were used as 100% growth. The compounds tested were SH-109, SH-122 and SH-123 (Table 6).
# [2] = molecular target: T1, human XIAP-BIR3 protein (residues 241-356) (Homo sapiens, UniProt P98170); experiment: Fluorescence polarization saturation binding of labeled Smac peptides
# T1 construct: The human XIAP-BIR3 protein (residues 241-356) with a His tag
# Description: A quantitative in vitro binding assay using fluorescence polarization was developed.
# [3] = system: MDA-435, MDA-468, and T47D cells; experiment: Cell growth inhibition, WST-8, breast cancer cell lines; format: cell-based, human; conditions: 5 days, all three cell lines
# Description: To test the effect of Smac mimetics by themselves in inhibition of cell growth in human cancer cells, SH-102 was administered to three different breast cancer cell lines. MDA-435, MDA-468, and T47D cells were seeded in 96-well plates with increasing concentrations of SH-102, Smac8, or Smac8-C. The cells were then incubated at 37° C. with 5% CO2 for 5 days, followed by detection of cell viability with WST-8 (10% Dojindo solution in IMEM with 10% FCS). OD values at 450 nm with reference at 650 nm were read approximately 3 hours later. Untreated cells were used as 100% growth. […]. […] (FIGS. 26A-26C).
# Sequence of XIAP BIR3 (P98170 241-356): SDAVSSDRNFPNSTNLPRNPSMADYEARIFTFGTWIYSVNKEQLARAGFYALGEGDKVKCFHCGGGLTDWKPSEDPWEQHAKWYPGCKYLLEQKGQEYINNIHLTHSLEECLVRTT
# T1 sequence (P98170 241-356): as above
Ki (XIAP BIR3),Compound,further results
–,"[NH2][Pt]([NH2])([Cl])[Cl] [CDDP, cisplatin, reference compound]",cells undergoing apoptosis as compared to control cells (PC-3 cells; 50 μM CDDP alone): ~25%; cells undergoing apoptosis as compared to control cells (MDA-231 cells; 25 μM CDDP alone): about 25%; cells undergoing apoptosis as compared to control cells (MDA-231 cells; 50 μM CDDP alone): ~42%
0.29 ± 0.06 µM,CC(C)C(NC(=O)[C@H](C)N)C(=O)C1CCC[C@H]1C(=O)NCc1ccccc1 (stereo partly drawn) [Compound 1],–
0.06 µM,CC[C@H](N)C(=O)N[C@H]1CCC[C@H]2CC[C@@H](C(=O)NCc3ccccc3)N2C1=O [Compound 33],"Ki (XIAP BIR3; Ki): 0.06 µM; Ki (XIAP BIR3; Ki (μM), Table 4, [5.3.0] bicyclic lactam system): 0.06 ± 0.015 µM"
> 200 µM,C[C@H](N)C(=O)N[C@H]1CC[C@H]2CC[C@@H](C(=O)Nc3ccccc3)N2C1=O [SH-69],–
> 200 µM,C[C@H](N)C(=O)N[C@H]1CC[C@H]2CC[C@@H](C(=O)N[C@@H](C)c3ccccc3)N2C1=O [SH-71],–
8.88 µM,C[C@H](N)C(=O)N[C@H]1CC[C@H]2CC[C@@H](C(=O)N[C@H](C)c3ccccc3)N2C1=O [SH-72],–
26.3 µM,C[C@H](N)C(=O)N[C@H]1CC[C@H]2CC[C@@H](C(=O)NCc3ccccc3Br)N2C1=O [SH-73],–
9.62 µM,C[C@H](N)C(=O)N[C@H]1CC[C@H]2CC[C@@H](C(=O)NCc3cccc(Br)c3)N2C1=O [SH-74],–
19.6 µM,C[C@H](N)C(=O)N[C@H]1CC[C@H]2CC[C@@H](C(=O)NCc3ccc(Br)cc3)N2C1=O [SH-75],–
44.4 µM,Cc1cccc(CNC(=O)[C@@H]2CC[C@@H]3CC[C@H](NC(=O)[C@H](C)N)C(=O)N32)c1 [SH-77],–
12.2 µM,C[C@H](N)C(=O)N[C@H]1CC[C@H]2CC[C@@H](C(=O)NCc3cccc(Cl)c3)N2C1=O [SH-78],–
> 200 µM,C[C@H](N)C(=O)N[C@H]1CC[C@H]2CC[C@@H](C(=O)NCCc3c[nH]c4ccccc34)N2C1=O [SH-79],–
9.98 µM,C[C@H](N)C(=O)N[C@H]1CC[C@H]2CC[C@@H](C(=O)NCc3ccoc3)N2C1=O [SH-84],–
6.28 µM,C[C@H](N)C(=O)N[C@H]1CC[C@H]2CC[C@@H](C(=O)NCc3ccsc3)N2C1=O [SH-85],–
–,CCC[C@H](N)C(=O)N[C@H]1CC[C@H]2CC[C@@H](C(=O)NCc3ccccc3)N2C1=O [SH-93],"potentiation of CDDP activity in inducing apoptosis (PC-3 cells): unable to potentiate the activity of CDDP; Ki (XIAP BIR3; Ki (μM), Table 5): > 100 µM; effect of combination with CDDP on apoptosis (MDA-231 cells; 25 and 50 μM CDDP + 25 μM SH-93, 42 hours): no significant effect"
8.51 µM,CC[C@H](N)C(=O)N[C@H]1CC[C@H]2CC[C@@H](C(=O)N[C@@H](Cc3ccccc3)c3ccccc3)N2C1=O [SH-100],–
0.059 µM,C[C@H](N)C(=O)N[C@H]1CCC[C@H]2CC[C@@H](C(=O)NC(c3ccccc3)c3ccccc3)N2C1=O [SH-104],–

Ki (XIAP BIR3),Compound,further results
2.01 µM,C[C@H](N)C(=O)N[C@H]1CCC[C@H]2CC[C@@H](COC(c3ccccc3)c3ccccc3)N2C1=O [SH-106],–
> 40 µM,CC[C@H](N)CC[C@H]1CCC[C@H]2CC[C@@H](C(=O)NC(c3ccccc3)c3ccccc3)N2C1=O [SH-107],–
0.028 µM,CC[C@H](N)C(=O)N[C@H]1CCCC[C@H]2CC[C@@H](C(=O)NC(c3ccccc3)c3ccccc3)N2C1=O [SH-109],cell growth inhibition (in words) [1]: inhibited the cell growth
0.14 µM,CC[C@H](N)C(=O)N[C@H]1CCCC[C@H]2CC[C@@H](C(=O)N[C@H](c3ccccc3)c3ccccc3C)N2C1=O [SH-113],–
0.027 µM,CC[C@H](N)C(=O)N[C@H]1CCCC[C@H]2CC[C@@H](C(=O)N[C@H](c3ccccc3)c3cccc(C)c3)N2C1=O [SH-114],–
0.092 µM,CC[C@H](N)C(=O)N[C@H]1CCCC[C@H]2CC[C@@H](C(=O)N[C@H](c3ccccc3)c3ccc(C)cc3)N2C1=O [SH-115],–
0.019 µM,CC[C@H](N)C(=O)N[C@H]1CCCC[C@H]2CC[C@@H](C(=O)N[C@@H](c3ccccc3)c3ccccc3C)N2C1=O [SH-116],–
0.012 µM,CC[C@H](N)C(=O)N[C@H]1CCCC[C@H]2CC[C@@H](C(=O)N[C@@H](c3ccccc3)c3cccc(C)c3)N2C1=O [SH-117],–
0.016 µM,CC[C@H](N)C(=O)N[C@H]1CCCC[C@H]2CC[C@@H](C(=O)N[C@@H](c3ccccc3)c3ccc(C)cc3)N2C1=O [SH-118],–
0.12 µM,CC[C@H](N)C(=O)N[C@H]1CCCC[C@H]2CC[C@@H](C(=O)N[C@H](c3ccccc3)c3ccc4ccccc4c3)N2C1=O [SH-119],–
0.023 µM,CC[C@H](N)C(=O)N[C@H]1CCCC[C@H]2CC[C@@H](C(=O)N[C@@H](c3ccccc3)c3ccc4ccccc4c3)N2C1=O [SH-120],–
> 10 µM,C[C@H](O)C(=O)N[C@H]1CCCC[C@H]2CC[C@@H](C(=O)NC(c3ccccc3)c3ccccc3)N2C1=O [SH-123],cell growth inhibition (in words) [1]: inhibited the cell growth
0.03 µM,CC[C@@H](C(=O)N[C@H]1CCCC[C@H]2CC[C@@H](C(=O)NC(c3ccccc3)c3ccccc3)N2C1=O)N(C)C [SH-125],–
–,"CC[C@H](N)C(=O)N[C@@H](CCCNC(=N)N)C(=O)N1CCC[C@H]1C(=O)N[C@@H](Cc1ccccc1)C(=O)N[C@@H](CCCCNC(=O)c1ccc2c(c1)C1(OC2=O)c2ccc(O)cc2Oc2cc(O)ccc21)C(=O)O [SM5F, AbuRPFK-FAM] (H-[Abu]RPFK(6FAM)-OH; N-terminus and C-terminus assumed)",ratio of the Kd values between labeled SM5F and S9F ([2]; SM5F versus S9F): 7.2 fold; binding affinity higher than natural Smac peptide S9F ([2]; relative to S9F): about 10 times
–,"CC(=O)O[C@@]12CO[C@@H]1C[C@H](O)[C@@]1(C)C(=O)[C@H](O)C3=C(C)[C@@H](OC(=O)[C@H](O)[C@@H](NC(=O)OC(C)(C)C)c4ccccc4)C[C@@](O)([C@@H](OC(=O)c4ccccc4)[C@H]21)C3(C)C [TAXOTERE, docetaxel, reference compound]",cells undergoing apoptosis as compared to control cells (PC-3 cells; 10 μM TAXOTERE alone): about 5%; cells undergoing apoptosis as compared to control cells (PC-3 cells; 20 μM TAXOTERE alone): ~8%
–,"AVPIAQKS [Smac-8, Smac peptide without a carrier peptide, negative control, reference compound]",potentiation of CDDP activity in inducing apoptosis (PC-3 cells): unable to potentiate the activity of CDDP; cell growth inhibition (in words) [3]: essentially ineffective

Compound,Ki (XIAP BIR3),further results
C[C@H](N)C(=O)N[C@H]1CC[C@H]2CC[C@@H](C(=O)N[C@H](Cc3ccccc3)C(N)=O)N2C1=O [SH-92],9.98 µM,–
